Data: patent publication US20240262825A1, “PAIN TREATING COMPOUNDS AND USES THEREOF” (BIONOMICS LIMITED, priority 2018, published 2024)

molecular target: T1, hNav1.7 (Homo sapiens, UniProt Q15858); experiment: hNav1.7 inactivated state (SIS) automated patch clamp electrophysiology; format: cell-based; conditions: Assay Conc. 10 uM; inactivated state protocol, HEK cells, whole-cell Patchliner
T1 construct: expressed in transfected cells
Method: hNav1.7, hNav1.2, hNav1.3, hNav1.4, hNav1.5, hNav1.6 were stably expressed in human embryonic kidney cells and kept under constant antibiotic selection. For in vitro assays, cells were maintained in appropriate growth medium at 37° C. and 5% CO2 in a humidified incubator.
Nav1.x expressing cells plated in T-25 flasks for 2-3 days prior to use and grown to 70-85% confluence were briefly trypsinized to obtain a single cell suspension of ˜2-3×10^6 cells/ml. All electrophysiological recordings were performed at ambient temperature (21-23° C.) using automated patch clamp (Patchliner, Nanion Technologies GmbH) in the whole-cell configuration using the following solutions: Internal solution contained (in mM): CsCl (50), NaCl (10), CsF (60), EGTA (20), HEPES (10), pH 7.2 KOH, 285 mOsmol·Kg^−1. External (bath) solution contained (in mM): NaCl (140), KCl (4), MgCl2 (1), CaCl2 (2) D-Glucose monohydrate (5), HEPES (10), pH 7.4 NaOH, 298 mOsmol·kg^−1.
For each Nav1.x channel, a steady state inactivation curve was obtained in order to calculate the voltage resulting in 50% channel inactivation (V0.5inact). A 2 pulse protocol was then employed in which cells held at a voltage corresponding to 20 mV more negative to V0.5 inact were depolarised to −10 mV for 20 ms before returning to the previous holding voltage. This test pulse constituted P1 and represents 100% available (non-inactivated) Nav1.x channels. The same cell was then depolarised for 8 s to a voltage corresponding to 7 mV more positive than V0.5inact in order to cause channel inactivation. Following a brief (2 ms) hyperpolarising voltage step to −120 mV (to reset the activation gate), cells were again subjected to a depolarising test pulse (P2) to −10 mV for 20 ms before returning to the holding potential. Each sequence was repeated 6×at 30 s intervals. Using this protocol, control P2 current amplitudes (representing the % channels available following 8 s inactivation) was ˜50% of control P1 current amplitude. 6 repetitions of this recording sequence were made in the control bath solution and then again 2 minutes after compound addition and thereafter at increasing compound concentrations. % inhibition was calculated by (1−(P2drug at repetition 6/P2control at repetition 6))*100. Data were either presented as % block by a single concentration of drug or an estimated eIC50 determined from 2-3 drug concentrations which was determined by fitting data with a sigmoidal dose response curve (variable slope) using GraphPad Prism software (Version 6.0).
All compounds were dissolved in DMSO to 20 mM initially. Subsequent dilutions in DMSO were made to achieve 200×final bath concentrations. DMSO compound stocks were finally diluted 1/200 in bath solution just prior to assay resulting in a final DMSO concentration of 0.5% which was not found to affect control current amplitude.

T1 sequence (Q15858 whole entry): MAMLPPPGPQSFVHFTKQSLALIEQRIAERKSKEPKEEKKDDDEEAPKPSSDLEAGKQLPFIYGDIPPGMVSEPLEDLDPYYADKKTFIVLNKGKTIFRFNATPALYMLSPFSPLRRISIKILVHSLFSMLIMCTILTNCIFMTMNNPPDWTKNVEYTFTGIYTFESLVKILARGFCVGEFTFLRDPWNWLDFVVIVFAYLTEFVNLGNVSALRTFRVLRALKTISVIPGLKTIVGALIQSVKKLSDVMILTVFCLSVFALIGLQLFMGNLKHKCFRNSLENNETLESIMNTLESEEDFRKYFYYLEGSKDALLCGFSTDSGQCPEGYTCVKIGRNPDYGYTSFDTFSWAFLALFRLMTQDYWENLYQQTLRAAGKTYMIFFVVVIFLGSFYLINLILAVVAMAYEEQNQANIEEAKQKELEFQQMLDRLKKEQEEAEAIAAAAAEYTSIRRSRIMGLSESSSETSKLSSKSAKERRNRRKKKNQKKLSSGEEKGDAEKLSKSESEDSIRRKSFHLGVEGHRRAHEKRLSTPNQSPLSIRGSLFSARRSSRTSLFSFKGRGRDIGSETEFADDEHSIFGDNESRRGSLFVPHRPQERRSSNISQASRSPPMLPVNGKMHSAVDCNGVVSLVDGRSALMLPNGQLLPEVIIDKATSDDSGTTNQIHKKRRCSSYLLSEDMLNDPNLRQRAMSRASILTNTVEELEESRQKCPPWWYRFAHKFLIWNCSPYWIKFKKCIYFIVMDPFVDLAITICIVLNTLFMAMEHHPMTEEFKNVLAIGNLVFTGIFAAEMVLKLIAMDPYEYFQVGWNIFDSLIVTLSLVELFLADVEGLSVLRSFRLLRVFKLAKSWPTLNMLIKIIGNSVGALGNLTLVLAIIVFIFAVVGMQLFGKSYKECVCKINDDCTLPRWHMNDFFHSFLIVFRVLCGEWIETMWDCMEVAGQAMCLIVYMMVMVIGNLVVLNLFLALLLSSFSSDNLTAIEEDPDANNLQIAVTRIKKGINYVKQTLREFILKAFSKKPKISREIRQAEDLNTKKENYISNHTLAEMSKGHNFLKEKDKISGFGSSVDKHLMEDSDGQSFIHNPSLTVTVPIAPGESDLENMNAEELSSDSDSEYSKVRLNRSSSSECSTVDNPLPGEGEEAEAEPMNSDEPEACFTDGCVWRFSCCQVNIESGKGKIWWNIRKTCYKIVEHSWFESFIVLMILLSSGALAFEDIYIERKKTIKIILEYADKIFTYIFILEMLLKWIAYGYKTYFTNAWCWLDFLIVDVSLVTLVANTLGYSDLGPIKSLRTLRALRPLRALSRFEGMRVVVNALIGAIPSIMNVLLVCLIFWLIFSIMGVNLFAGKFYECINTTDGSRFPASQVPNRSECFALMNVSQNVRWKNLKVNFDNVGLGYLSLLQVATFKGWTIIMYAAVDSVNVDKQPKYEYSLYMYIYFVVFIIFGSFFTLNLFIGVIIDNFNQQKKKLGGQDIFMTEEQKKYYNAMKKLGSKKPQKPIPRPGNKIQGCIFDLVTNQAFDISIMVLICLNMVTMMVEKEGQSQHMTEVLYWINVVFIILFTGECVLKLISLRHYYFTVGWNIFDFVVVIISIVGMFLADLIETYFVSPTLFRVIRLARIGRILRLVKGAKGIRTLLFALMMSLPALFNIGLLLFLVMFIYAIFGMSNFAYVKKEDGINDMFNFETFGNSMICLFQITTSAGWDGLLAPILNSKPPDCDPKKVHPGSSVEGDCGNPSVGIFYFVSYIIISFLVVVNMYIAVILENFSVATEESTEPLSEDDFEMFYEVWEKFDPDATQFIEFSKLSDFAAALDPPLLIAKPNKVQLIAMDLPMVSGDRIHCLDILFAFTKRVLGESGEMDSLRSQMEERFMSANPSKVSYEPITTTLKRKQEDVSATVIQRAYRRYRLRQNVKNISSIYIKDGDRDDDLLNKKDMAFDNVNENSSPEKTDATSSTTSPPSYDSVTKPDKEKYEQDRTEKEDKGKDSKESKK

hNav1.7 SIS (% inh) [%] | SMILES
71 | O=C(NCc1ccc(OCc2ccccc2F)cc1)c1cn2ccccc2n1 [Compound 25]

same assay, conditions: HEK293, Assay Conc. 3 uM; inactivated state protocol, HEK cells, whole-cell Patchliner; read-out: hNav1.7 SIS (% inh)

inhibition at 3 µM [%] | SMILES
61 | O=C(NCc1ccc(OCc2ccccc2F)cc1)c1csc(C(F)(F)F)n1 [Compound 23]

same assay, conditions: HEK293, Assay Conc. 10 uM; inactivated state protocol, HEK cells, whole-cell Patchliner; read-out: hNav1.7 SIS (% inh)

inhibition at 10 µM [%] | SMILES
34 | O=C(NCc1ccc(OCc2ccccc2F)cc1)c1cc[nH]c(=O)c1 [Compound 11]
36 | O=C(NCc1ccc(OCc2ccccc2F)cn1)c1cccn2cnnc12 [Compound 20]
35 | Cn1ccc(C(=O)NCc2ccc(OCc3ccccc3F)cc2)cc1=O [Compound 12]
35 | O=C(NCc1ccc(OCc2ccccc2F)cc1)c1cccc2cncn12 [Compound 19]
48 | O=C(NCc1ccc(OCc2ccccc2F)cc1)c1cc2cccn2cn1 [Compound 2]
32 | Cn1cccc(C(=O)NCc2ccc(OCc3ccccc3F)cc2)c1=O [Compound 16]
36 | CN(Cc1ccc(OCc2ccccc2F)cc1)C(=O)c1csc(C(F)(F)F)n1 [Compound 4]
49 | O=C(NCc1ccc(OCc2ccccc2F)cc1)c1cccn2ncnc12 [Compound 14]
35 | O=C(NCc1ccc(OCc2ccccc2F)cc1)c1nnc(C2CC2)o1 [Compound 9]
41 | O=C(NCc1ccc(OCc2ccccc2F)cc1)c1cccnc1 [Compound 1]
50 | O=C(NCc1ccc(OCc2ccccc2F)cc1)c1ccn2cncc2c1 [Compound 18]
30 | O=C(NCc1ccc(OCc2ccccc2F)cc1)c1ccn2cnnc2c1 [Compound 10]
63 | COC[C@H](C)N(Cc1ccc(OCc2ccccc2F)cc1)C(=O)c1cn2ccccc2n1 [Compound 24]
92 | CN(Cc1ccc(OCc2ccccc2F)cc1)C(=O)c1cn2ccccc2n1 [Compound 27]
32 | COc1ncccc1C(=O)NCc1ccc(OCc2ccccc2F)cc1 [Compound 17]
34 | O=C(NCc1ccc(OCc2ccccc2F)cc1)c1ccc2cncn2c1 [Compound 46]
39 | Cc1nc(C(=O)NCc2ccc(OCc3ccccc3F)cc2)cs1 [Compound 5]
56 | O=C(NCc1ccc(OCc2ccccc2F)cc1)c1cn2ccccc2n1 [Compound 53]
47 | COc1ncc(C(=O)NCc2ccc(OCc3ccccc3F)cc2)cn1 [Compound 6]
35 | CC(C)(Oc1ccc(CNC(=O)c2cccn3cnnc23)cc1)c1ccccc1F [Compound 7]
34 | O=C(NCc1ccc(OCc2ccccc2F)cc1)c1cn[nH]c1 [Compound 3]
52 | O=C(NCc1ccc(OCc2ccccc2F)cc1)c1cscn1 [Compound 21]
44 | Cc1n[nH]c(C(=O)NCc2ccc(OCc3ccccc3F)cc2)n1 [Compound 8]
51 | O=C(NCc1ccc(OCc2ccccc2F)cc1)c1ccn2ncnc2c1 [Compound 15]
59 | Cc1cnc(C(=O)NCc2ccc(OCc3ccccc3F)cc2)cn1 [Compound 22]
42 | O=C(NCc1ccc(OCc2ccccc2F)cc1)c1cccc2ncnn12 [Compound 13]
45 | O=C(NCc1ccc(OCC2CCCC2)cc1)c1ccn2ccnc2c1 [Compound 52]

same assay, conditions: estimated eIC50 from 2-3 drug concentrations; inactivated state protocol

IC50 [µM] | SMILES
8.6 | Cc1nc(C(=O)NCc2ccc(OCc3ccccc3F)cc2)cn1C [Compound 43]
3.2 | O=C(NCc1ccc(OCc2ccccc2F)cc1)c1nccn2ccnc12 [Compound 31]
7.5 | O=C(NCc1ccc(OCc2ccccc2F)cc1)c1nc(C(F)(F)F)cs1 [Compound 33]
3.2 | O=C(NCc1ccc(OCC2CCCCC2)cc1)c1cn2ccccc2n1 [Compound 50]
8.9 | O=C(NCc1ccc(OCc2ccccc2F)cc1)c1cnc2ccccn12 [Compound 37]
5.7 | O=C(NCc1ccc(OCc2ccccc2F)cc1)c1cn2ccccc2n1 [Compound 25]
5.9 | Cn1cnc(C(=O)NCc2ccc(OCc3ccccc3F)cc2)n1 [Compound 32]
6.3 | COC[C@@H](C)N(Cc1ccc(OCc2ccccc2F)cc1)C(=O)c1cn2ccccc2n1 [Compound 44]
0.98 | O=C(NCc1ccc(OCC2CCCC2)cc1)c1cccn2cnnc12 [Compound 51]
4.1 | O=C(NCc1ccc(OCc2ccccc2F)cc1)c1cccn2cnnc12 [Compound 39]
6.5 | CC(C)(Oc1ccc(CNC(=O)c2ccn3ccnc3c2)cc1)c1ccccc1F [Compound 29]
6.2 | CC(C)c1cc(C(=O)NCc2ccc(OCc3ccccc3F)cc2)n[nH]1 [Compound 42]
8.9 | Cc1cc(C(=O)NCc2ccc(OCc3ccccc3F)cc2)n(C)n1 [Compound 41]
5.7 | O=C(NCc1ccc(OCC2CCCCC2)cc1)c1ccn2ccnc2c1 [Compound 48]
7.2 | COC[C@H](C)N(Cc1ccc(OCc2ccccc2F)cc1)C(=O)c1cn2ccccc2n1 [Compound 24]
4.3 | CN(Cc1ccc(OCc2ccccc2F)cc1)C(=O)c1cn2ccccc2n1 [Compound 27]
5.2 | O=C(NCc1ccc(OCc2ccccc2F)cc1)c1ccn2ccnc2c1 [Compound 26]
5.6 | Cc1cccc(C(=O)NCc2ccc(OCc3ccccc3F)cc2)n1 [Compound 36]
5.5 | Cc1nc(C(=O)NCc2ccc(OCc3ccccc3F)cc2)sc1C [Compound 35]
9.4 | Cc1csc(C(=O)NCc2ccc(OCc3ccccc3F)cc2)n1 [Compound 34]
2.5 | O=C(NCc1ccc(OCC2CCCCC2)cc1)c1cccn2cnnc12 [Compound 49]
2.6 | CC(C)(Oc1ccc(CNC(=O)c2cccn3ccnc23)cc1)c1ccccc1F [Compound 28]
7.5 | O=C(NCc1ccc(OCc2ccccc2F)cc1)c1cccn2nnnc12 [Compound 30]
1.9 | O=C(NCc1ccc(OCc2ccccc2F)cc1)c1csc(C(F)(F)F)n1 [Compound 23]
3.2 | O=C(NCc1ccc(OCc2ccccc2F)cc1)c1cccc2ccnn12 [Compound 38]
7.6 | O=C(NCc1ccc(OCc2ccccc2F)cc1)c1cccn2cncc12 [Compound 45]
3.5 | O=C(NCc1ccc(OCc2ccccc2F)cc1)c1cccn2ccnc12 [Compound 40]
3.6 | O=C(NCc1ccc(OCC2CCCCC2)cc1)c1ccc2cncn2c1 [Compound 47]
